Experimental data published in ChEMBL document CHEMBL3600317, “In silico investigation of FOXM1 binding and novel inhibitors in epithelial ovarian cancer” (Bioorg Med Chem, 2015).
Calls of active or inactive are those of the source. No cut-off for these calls is given here.

Assays:
[1] = tested on: SK-OV-3; assay: Cytotoxicity against human SKOV3 cells at 1 nM to 100 uM after 72 hrs by sulforhodamine B assay; format: functional, cell-based
[2] = tested on: OVCAR-3; assay: Cytotoxicity against human OVCAR3 cells at 1 nM to 100 uM after 72 hrs by sulforhodamine B assay; format: functional, cell-based
[3] = tested on: ES2; assay: Cytotoxicity against human ES2 cells at 1 nM to 100 uM after 72 hrs by sulforhodamine B assay; format: functional, cell-based
[4] = tested on: OVCAR-3; assay: Cytotoxicity against human OVCAR3 cells at 10 uM after 72 hrs by sulforhodamine B assay; format: functional
[5] = tested on: SK-OV-3; assay: Cytotoxicity against human SKOV3 cells at 10 uM after 72 hrs by sulforhodamine B assay; format: functional
[6] = tested on: ES2; assay: Cytotoxicity against human ES2 cells at 10 uM after 72 hrs by sulforhodamine B assay; format: functional, cell-based
[7] = tested on: SK-OV-3; assay: Inhibition of CCNB1 mRNA expression in human SKOV3 cells at 1 uM by RT-PCR analysis; format: functional, cell-based
[8] = tested on: OVCAR-3; assay: Inhibition of FOXM1 protein expression in human OVCAR3 cells at 1 uM by Western blot analysis; format: functional, cell-based
[9] = tested on: OVCAR-3; assay: Inhibition of CCNB1 protein expression in human OVCAR3 cells at 1 uM by Western blot analysis; format: functional, cell-based
[10] = tested on: SK-OV-3; assay: Inhibition of CCNB1 protein expression in human SKOV3 cells at 1 uM by Western blot analysis; format: functional, cell-based
[11] = tested on: ES2; assay: Inhibition of CDC25B mRNA expression in human ES2 cells at 1 uM by RT-PCR analysis; format: functional, cell-based
[12] = tested on: ES2; assay: Inhibition of FOXM1 protein expression in human ES2 cells at 1 uM by Western blot analysis; format: functional, cell-based
[13] = tested on: OVCAR-3; assay: Cytotoxicity against human OVCAR3 cells after 72 hrs by sulforhodamine B assay; format: functional, cell-based; details: OVCAR-3, 72 h
[14] = tested on: SK-OV-3; assay: Inhibition of FOXM1 mRNA expression in human SKOV3 cells at 1 uM by RT-PCR analysis; format: functional, cell-based
[15] = tested on: ES2; assay: Inhibition of FOXM1 mRNA expression in human ES2 cells at 1 uM by RT-PCR analysis; format: functional, cell-based
[16] = tested on: ES2; assay: Inhibition of CCNB1 mRNA expression in human ES2 cells at 1 uM by RT-PCR analysis; format: functional, cell-based
[17] = Cytotoxicity against human ES2 cells after 72 hrs by sulforhodamine B assay; format: functional, cell-based; details: ES-2, 72 h
[18] = tested on: SK-OV-3; assay: Inhibition of CDC25B mRNA expression in human SKOV3 cells at 1 uM by RT-PCR analysis; format: functional, cell-based
[19] = tested on: ES2; assay: Inhibition of CCNB1 protein expression in human ES2 cells at 1 uM by Western blot analysis; format: functional, cell-based
[20] = tested on: SK-OV-3; assay: Cytotoxicity against human SKOV3 cells after 72 hrs by sulforhodamine B assay; format: functional, cell-based; details: SK-OV-3, 72 h
[21] = tested on: SK-OV-3; assay: Inhibition of FOXM1 protein expression in human SKOV3 cells at 1 uM by Western blot analysis; format: functional, cell-based

CC(=O)Nc1ccccc1[N+](=O)[O-]
Activity [1]: inactive | Activity [2]: inactive | Activity [3]: inactive

O=C(Nc1ccc2ncccc2c1)Nc1ccc2ncccc2c1
Activity [4]: 20% | Activity [5]: 20% | Activity [6]: inactive

c1ccc(Nc2cc3ccccc3c3ccccc23)cc1
inhibition [7]: Active | inhibition [8]: Active | inhibition [9]: Active | inhibition [10]: Active | inhibition [11]: Active | inhibition [12]: Active | IC50 [13]: 1000 nM | inhibition [14]: Active | inhibition [15]: Active | inhibition [16]: Active | IC50 [17]: 1000 nM | inhibition [18]: Active | inhibition [19]: Active | IC50 [20]: 1000 nM | inhibition [21]: Active
